Reference: patent US12319672B2, “Alpha-D-galactopyranoside derivatives” (Idorsia Pharmaceuticals Ltd, priority 2019, dated 2025)
pIC50: −log10 of the molar value.

Experiments:
human Gal-1 (hGal-1) = test: Competitive binding assay: binding of biotinylated hGal-1 to microplate-adsorbed asialofetuin (ASF); settings: Activities on hGal-1; mean values of several measurements
Outline: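 Biotin-hGal-3/hGal-1 300-1000 ng/mL + cpd (DMSO dilutions) on ASF-coated plate, 3 h 4° C; wash; SA-HRP 80 ng/mL 1 h 4° C; wash; ABTS. IC50 = mean of several runs. hGal-1 preferably Cys→Ser (all six) mutant.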

human Gal-3 (hGal-3) = human Gal-3 (hGal-3) (Homo sapiens (Human), UniProt P17931); test: Competitive binding assay: binding of biotinylated hGal-3 to microplate-adsorbed asialofetuin (ASF); settings: Activity on hGal-3; mean values of several measurements
Chain of human Gal-3 (hGal-3) (P17931 whole entry): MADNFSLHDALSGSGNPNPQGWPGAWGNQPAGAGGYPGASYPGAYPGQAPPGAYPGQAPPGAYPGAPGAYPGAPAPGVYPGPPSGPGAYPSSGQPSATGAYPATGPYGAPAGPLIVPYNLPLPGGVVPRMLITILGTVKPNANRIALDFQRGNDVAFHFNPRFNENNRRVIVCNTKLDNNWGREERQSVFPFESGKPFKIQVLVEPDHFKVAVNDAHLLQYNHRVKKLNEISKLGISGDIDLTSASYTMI
Outline: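 Biotinylated hGal-3 (300-1000 ng/mL) bound to ASF-coated wells with serially diluted compound, 3 h at 4° C. After washing, bound protein was detected with streptavidin-peroxidase (80 ng/mL, 1 h, 4° C) and ABTS substrate; IC50 values are means of several measurements.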

Chain of human Gal-1 (hGal-1) (P09382 2-135 limits assumed): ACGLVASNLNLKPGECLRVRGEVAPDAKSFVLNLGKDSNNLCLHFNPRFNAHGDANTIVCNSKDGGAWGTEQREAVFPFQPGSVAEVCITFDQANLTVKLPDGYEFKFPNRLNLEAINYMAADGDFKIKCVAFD

SMILES	pIC50 (human Gal-1 (hGal-1))	pIC50 (human Gal-3 (hGal-3))
CC(C)(C)c1cc(C[C@H]2O[C@H](CO)[C@H](O)[C@H](n3cc(-c4cc(F)c(F)c(F)c4)nn3)[C@H]2OCC(=O)O)on1 [Example 2.37, 2-(((2R,3R,4S,5R,6R)-2-((3-(tert-butyl)isoxazol-5-yl)methyl)-5-hydroxy-6-(hydroxymethyl)-4-(4-(3,4,5-trifluorophenyl)-1H-1,2,3-triazol-1-yl)tetrahydro-2H-pyran-3-yl)oxy)acetic acid]	5.76	7.15
CNC(=O)CO[C@@H]1[C@@H](n2cc(-c3cc(F)c(F)c(F)c3)nn2)[C@@H](O)[C@@H](CO)O[C@@H]1Cc1cc(C(C)(C)C)on1 [Example 2.38, 2-(((2R,3R,4S,5R,6R)-2-((5-(tert-butyl)isoxazol-3-yl)methyl)-5-hydroxy-6-(hydroxymethyl)-4-(4-(3,4,5-trifluorophenyl)-1H-1,2,3-triazol-1-yl)tetrahydro-2H-pyran-3-yl)oxy)-N-methylacetamide]	5.70	6.72
CC(C)(C)c1cc(C[C@H]2O[C@H](CO)[C@H](O)[C@H](n3cc(-c4cc(F)c(F)c(F)c4)nn3)[C@H]2OCC(=O)N2CC[C@@H](O)C2)no1 [Example 2.39, 2-(((2R,3R,4S,5R,6R)-2-((5-(tert-butyl)isoxazol-3-yl)methyl)-5-hydroxy-6-(hydroxymethyl)-4-(4-(3,4,5-trifluorophenyl)-1H-1,2,3-triazol-1-yl)tetrahydro-2H-pyran-3-yl)oxy)-1-((R)-3-hydroxypyrrolidin-1-yl)ethan-1-one]	5.18	6.96
CC(C)(C)c1cc(C[C@H]2O[C@H](CO)[C@H](O)[C@H](n3cc(-c4cc(F)c(F)c(F)c4)nn3)[C@H]2OCC(=O)N2CC(O)C2)no1 [Example 2.40, 2-(((2R,3R,4S,5R,6R)-2-((5-(tert-butyl)isoxazol-3-yl)methyl)-5-hydroxy-6-(hydroxymethyl)-4-(4-(3,4,5-trifluorophenyl)-1H-1,2,3-triazol-1-yl)tetrahydro-2H-pyran-3-yl)oxy)-1-(3-hydroxyazetidin-1-yl)ethan-1-one]	5.34	6.89
CC(C)(C)c1cc(C[C@H]2O[C@H](CO)[C@H](O)[C@H](n3cc(-c4cc(F)c(F)c(F)c4)nn3)[C@H]2OCC(=O)N2CCC(O)CC2)no1 [Example 2.41, 2-(((2R,3R,4S,5R,6R)-2-((5-(tert-butyl)isoxazol-3-yl)methyl)-5-hydroxy-6-(hydroxymethyl)-4-(4-(3,4,5-trifluorophenyl)-1H-1,2,3-triazol-1-yl)tetrahydro-2H-pyran-3-yl)oxy)-1-(4-hydroxypiperidin-1-yl)ethan-1-one]	5.23	7.00
CC(C)(C)c1cc(C[C@H]2O[C@H](CO)[C@H](O)[C@H](n3cc(-c4cc(F)c(F)c(F)c4)nn3)[C@H]2OCC(=O)N2CC[C@H](O)C2)no1 [Example 2.42, 2-(((2R,3R,4S,5R,6R)-2-((5-(tert-butyl)isoxazol-3-yl)methyl)-5-hydroxy-6-(hydroxymethyl)-4-(4-(3,4,5-trifluorophenyl)-1H-1,2,3-triazol-1-yl)tetrahydro-2H-pyran-3-yl)oxy)-1-((S)-3-hydroxypyrrolidin-1-yl)ethan-1-one]	5.49	6.74
CC(C)(C)c1cc(C[C@H]2O[C@H](CO)[C@H](O)[C@H](n3cc(-c4ccc(F)c(F)c4F)nn3)[C@H]2OCC(=O)O)on1 [Example 2.43, 2-(((2R,3R,4S,5R,6R)-2-((3-(tert-butyl)isoxazol-5-yl)methyl)-5-hydroxy-6-(hydroxymethyl)-4-(4-(2,3,4-trifluorophenyl)-1H-1,2,3-triazol-1-yl)tetrahydro-2H-pyran-3-yl)oxy)acetic acid]	6.26	7.33
CC1(c2cc(C[C@H]3O[C@H](CO)[C@H](O)[C@H](n4cc(-c5ccc(F)c(F)c5F)nn4)[C@H]3OCC(=O)O)on2)CC1 [Example 2.44, 2-(((2R,3R,4S,5R,6R)-5-hydroxy-6-(hydroxymethyl)-2-((3-(1-methylcyclopropyl)isoxazol-5-yl)methyl)-4-(4-(2,3,4-trifluorophenyl)-1H-1,2,3-triazol-1-yl)tetrahydro-2H-pyran-3-yl)oxy)acetic acid]	6.29	7.40
Cc1ccc(-c2cn([C@H]3[C@@H](O)[C@@H](CO)O[C@H](Cc4cc(C(C)(C)C)no4)[C@@H]3OC(N)=O)nn2)c(F)c1F [Example 2.45, (2R,3R,4S,5R,6R)-2-((3-(tert-butyl)isoxazol-5-yl)methyl)-4-(4-(2,3-difluoro-4-methylphenyl)-1H-1,2,3-triazol-1-yl)-5-hydroxy-6-(hydroxymethyl)tetrahydro-2H-pyran-3-yl carbamate]	5.62	7.66
CC(C)(CO)c1cc(C[C@H]2O[C@H](CO)[C@H](O)[C@H](n3cc(-c4ccc(F)c(F)c4F)nn3)[C@H]2OCC(=O)O)on1 [Example 2.46, 2-(((2R,3R,4S,5R,6R)-5-hydroxy-2-((3-(1-hydroxy-2-methylpropan-2-yl)isoxazol-5-yl)methyl)-6-(hydroxymethyl)-4-(4-(2,3,4-trifluorophenyl)-1H-1,2,3-triazol-1-yl)tetrahydro-2H-pyran-3-yl)oxy)acetic acid]	6.05	7.54
C#Cc1ccc(-c2cn([C@H]3[C@@H](O)[C@@H](CO)O[C@H](Cc4cc(C(C)(C)C)on4)[C@@H]3OC)nn2)c(F)c1F [Example 2.47, (2R,3R,4S,5R,6R)-6-((5-(tert-butyl)isoxazol-3-yl)methyl)-4-(4-(4-ethynyl-2,3-difluorophenyl)-1H-1,2,3-triazol-1-yl)-2-(hydroxymethyl)-5-methoxytetrahydro-2H-pyran-3-ol]	5.36	6.64
CC(C)(C)c1cc(C[C@H]2O[C@H](CO)[C@H](O)[C@H](n3cc(-c4cc(F)c(F)c(F)c4)nn3)[C@H]2O)on1 [Example 2.48, (2R,3R,4R,5R,6R)-2-((3-(tert-butyl)isoxazol-5-yl)methyl)-6-(hydroxymethyl)-4-(4-(3,4,5-trifluorophenyl)-1H-1,2,3-triazol-1-yl)tetrahydro-2H-pyran-3,5-diol]	5.98	7.01
CC(C)(C)c1cc(C[C@H]2O[C@H](CO)[C@H](O)[C@H](n3cc(-c4ccc(F)c(F)c4F)nn3)[C@H]2O)on1 [Example 2.49, (2R,3R,4R,5R,6R)-2-((3-(tert-butyl)isoxazol-5-yl)methyl)-6-(hydroxymethyl)-4-(4-(2,3,4-trifluorophenyl)-1H-1,2,3-triazol-1-yl)tetrahydro-2H-pyran-3,5-diol]	6.19	7.28
Cc1ccc(-c2cn([C@H]3[C@@H](O)[C@@H](CO)O[C@H](Cc4cc(C(C)(C)C)no4)[C@@H]3O)nn2)c(F)c1F [Example 2.50, (2R,3R,4R,5R,6R)-2-((3-(tert-butyl)isoxazol-5-yl)methyl)-4-(4-(2,3-difluoro-4-methylphenyl)-1H-1,2,3-triazol-1-yl)-6-(hydroxymethyl)tetrahydro-2H-pyran-3,5-diol]	5.17	6.89
CCNC(=O)O[C@@H]1[C@@H](n2cc(-c3ccc(C)c(F)c3F)nn2)[C@@H](O)[C@@H](CO)O[C@@H]1Cc1cc(C(C)(C)C)no1 [Example 2.51, (2R,3R,4S,5R,6R)-2-((3-(tert-butyl)isoxazol-5-yl)methyl)-4-(4-(2,3-difluoro-4-methylphenyl)-1H-1,2,3-triazol-1-yl)-5-hydroxy-6-(hydroxymethyl)tetrahydro-2H-pyran-3-yl ethylcarbamate]	< 4.00	7.34
Cc1ccc(-c2cn([C@H]3[C@@H](O)[C@@H](CO)O[C@H](Cc4cc(C(C)(C)C)no4)[C@@H]3OCc3nccn3C)nn2)c(F)c1F [Example 2.52, (2R,3R,4S,5R,6R)-6-((3-(tert-butyl)isoxazol-5-yl)methyl)-4-(4-(2,3-difluoro-4-methylphenyl)-1H-1,2,3-triazol-1-yl)-2-(hydroxymethyl)-5-((1-methyl-1H-imidazol-2-yl)methoxy)tetrahydro-2H-pyran-3-ol]	5.29	7.11
Cc1ccc(-c2cn([C@H]3[C@@H](O)[C@@H](CO)O[C@H](Cc4cc(C(C)(C)C)no4)[C@@H]3OCc3nccs3)nn2)c(F)c1F [Example 2.53, (2R,3R,4S,5R,6R)-6-((3-(tert-butyl)isoxazol-5-yl)methyl)-4-(4-(2,3-difluoro-4-methylphenyl)-1H-1,2,3-triazol-1-yl)-2-(hydroxymethyl)-5-(thiazol-2-ylmethoxy)tetrahydro-2H-pyran-3-ol]	5.98	7.28
Cc1ccc(-c2cn([C@H]3[C@@H](O)[C@@H](CO)O[C@H](Cc4cc(C(C)(C)C)no4)[C@@H]3OCc3cscn3)nn2)c(F)c1F [Example 2.54, (2R,3R,4S,5R,6R)-6-((3-(tert-butyl)isoxazol-5-yl)methyl)-4-(4-(2,3-difluoro-4-methylphenyl)-1H-1,2,3-triazol-1-yl)-2-(hydroxymethyl)-5-(thiazol-4-ylmethoxy)tetrahydro-2H-pyran-3-ol]	6.23	7.28
Cc1ccc(-c2cn([C@H]3[C@@H](O)[C@@H](CO)O[C@H](Cc4cc(C(C)(C)C)no4)[C@@H]3OCc3cnco3)nn2)c(F)c1F [Example 2.55, (2R,3R,4S,5R,6R)-6-((3-(tert-butyl)isoxazol-5-yl)methyl)-4-(4-(2,3-difluoro-4-methylphenyl)-1H-1,2,3-triazol-1-yl)-2-(hydroxymethyl)-5-(oxazol-5-ylmethoxy)tetrahydro-2H-pyran-3-ol]	5.57	6.92
